Data taken from US20220152150A1, “MESOPOROUS SILICA PARTICLES COMPOSITIONS FOR VIRAL DELIVERY” (Novartis AG, priority 2019, published 2022).

System: EGFRvIII CARTs
Experiment: Cytokine production of EGFRvIII CARTs stimulated by ligand-presenting MSRs (multiplex cytokine analysis)
Type: cell-based
Details: lipid-coated MSRs, 1% PE-biotin in the lipid coating; FIG. 8
Procedure: MSRs with surface-immobilized ligands were prepared as described in Cheung, A. S., et al., Scaffolds that mimic antigen-presenting cells enable ex vivo expansion of primary T cells. Nature Biotechnology, 36(2), 160-169.
Briefly, liposomes primarily composed of POPC with 1 mol % PE-biotin were formed using a thin film rehydration method and extrusion through a 100 nm polycarbonate membrane. Hydroxyl functionalized MSRs were incubated with the liposomes to allow the formation of a supported lipid bilayer on the MSR surface (FIG. 6). To functionalize the MSRs with CD3 and CD28 agonistic antibodies, MSRs were washed several times with PBS, incubated with streptavidin, and then tethered with biotinylated CD3 and CD28 antibodies. For MSR-immobilization of EGFRvIII CAR-binding peptides, a biotinylated EGFRvIII CAR-binding peptide was used (FIG. 7). For BCMA CART stimulation, recombinant BCMAFc protein was biotinylated using biotin-NHS and similarly coupled to the MSR surface.
After incubation with the desired ligands, MSRs were washed several times with PBS and resuspended in culture medium at various concentrations and incubated with T cells. T cell proliferation was read out using CFSE labeling of the T cells and assessing dye dilution by flow cytometry. Cytokine production was assessed using a multiplex cytokine analysis method (Mesoscale […] V-Plex).
EGFRvIII CARTs produced interferon gamma and IL-2 in response to EGFRvIII CAR-binding peptide bound to the surface of the MSRs, while free EGFRvIII CAR-binding peptide in solution, a non-stimulating peptide (OVA) presented on the MSRs, or undecorated MSRs gave no response from the CARTs (FIG. 8). In another experiment, the proliferation of EGFRvIII CARTs were monitored in response to various stimuli using cell counting (FIG. 9).

| Substance | IL-2 production | interferon gamma production |
| --- | --- | --- |
| EGFRvIII CAR-binding peptide bound to the surface of the MSRs: biotinylated EGFRvIII CAR-binding peptide (LEEKKGNYVVTDH, SEQ ID NO: 674) immobilized via streptavidin on lipid-coated MSRs | produced | produced |
| free EGFRvIII CAR-binding peptide: EGFRvIII CAR-binding peptide (LEEKKGNYVVTDH (SEQ ID NO: 674)) free in solution | no response | no response |
